Data reported in patent publication US4199499A, “Pharmacologically active peptides” (Eli Lilly and Company, priority 1978, dated 1980).

Test system: mouse
Test: mouse hot plate test
Assay type: in vivo
Conditions: 15 minutes after administration, hot plate 52° C.
Method: The compounds of this invention are useful as analgesics. […] In this test, a mouse is placed inside an upright acrylic cylinder comprising, as its base, a hot plate surface which is maintained at 52° C. The mouse is given, by subcutaneous injection, a predetermined amount of test compound dissolved or suspended in a suitable carrier, and, 15 minutes after administration of the test compound, the mouse is placed on the hot plate surface. The latencies in seconds until the occurrence of each of two separate phenomena then are recorded. First the latency until the mouse licks its hind paw is measured, and, secondly, the latency until the mouse jumps from the hot plate surface is measured. […] This must occur in a dose range which produces no motor incoordination or incapacitation. The following Table records the results obtained from this test, reflected in terms of increase over saline control. Each data point was determined using ten treated and ten control mice, and each represents the difference in mean response latency between treated and control animals. The mean control latency for the hind paw lick response was 28.4±0.9 seconds determined from eight groups of ten control mice each. The mean control jump latency was 52.4±3.7 seconds for studies run in the a.m. and 75.9±6.0 seconds for studies run in the p.m. as determined from four groups of ten mice each in the a.m. and four groups of ten mice each in the p.m.

CSCCC(C)(CO)NC(=O)[C@H](Cc1ccccc1)NC(=O)CNC(=O)[C@@H](C)NC(=O)[C@@H](N)Cc1ccc(O)cc1 (stereo partly drawn) [C, L-Tyrosyl-D-alanyl-glycyl-L-phenylalanyl-D,L-α-methylmethionine carbinol]
Latency, Increase in Seconds over Control, escape jump (EJ) (dose 0.1 mg/kg subcutaneous): 16.4 s | Latency, Increase in Seconds over Control, hind paw lick (HPL) (dose 0.1 mg/kg subcutaneous): -2.6 s | Latency, Increase in Seconds over Control, escape jump (EJ) (dose 0.3 mg/kg subcutaneous): 47.7 s | Latency, Increase in Seconds over Control, hind paw lick (HPL) (dose 0.3 mg/kg subcutaneous): 1.7 s | Latency, Increase in Seconds over Control, escape jump (EJ) (dose 1 mg/kg subcutaneous): 55.2 s | Latency, Increase in Seconds over Control, hind paw lick (HPL) (dose 1 mg/kg subcutaneous): 8.3 s | Latency, Increase in Seconds over Control, escape jump (EJ) (dose 3 mg/kg subcutaneous): 74.9 s | Latency, Increase in Seconds over Control, hind paw lick (HPL) (dose 3 mg/kg subcutaneous): 11.2 s | Latency, Increase in Seconds over Control, escape jump (EJ) (dose 10 mg/kg subcutaneous): 90.7 s | Latency, Increase in Seconds over Control, hind paw lick (HPL) (dose 10 mg/kg subcutaneous): 18.8 s | Latency, Increase in Seconds over Control, escape jump (EJ) (dose 30 mg/kg subcutaneous): 93.8 s | Latency, Increase in Seconds over Control, hind paw lick (HPL) (dose 30 mg/kg subcutaneous): 10.6 s
